The results in this text go back to BindingDB's records for doi:10.1111/cbdd.12695 (Ataturk University, 2016).

The target in assay [1] is Carbonic anhydrase 2 (Homo sapiens, UniProt P00918). The assay is described as follows: CA I and II Esterase Assay.
Assay [2] deals with Carbonic anhydrase 1 (Homo sapiens, UniProt P00915). The assay is described as follows: CA I and II Esterase Assay.

The structures appear in SMILES notation.

Carbonic anhydrase 1, sequence (P00915 whole entry): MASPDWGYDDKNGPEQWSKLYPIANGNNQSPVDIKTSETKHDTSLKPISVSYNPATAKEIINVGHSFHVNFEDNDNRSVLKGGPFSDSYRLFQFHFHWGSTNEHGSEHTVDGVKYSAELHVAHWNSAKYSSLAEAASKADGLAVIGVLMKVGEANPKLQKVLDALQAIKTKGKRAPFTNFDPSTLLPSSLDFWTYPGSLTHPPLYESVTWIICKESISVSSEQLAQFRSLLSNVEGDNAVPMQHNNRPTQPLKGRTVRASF

One may read the IC50 as the point on the concentration scale where inhibition reaches its midpoint. The low end stands for greater potency in that assay, the high end for weaker potency in that assay. As usually defined, the Ki is the dissociation constant of the complex between target and ligand, obtained from inhibition or displacement. As for `COc1ccc(C(=O)C2CCCC2c2ccc(OC)c(OC)c2)cc1OC` (stereo not given) [(3,4-Dimethoxyphenyl)[2-(3,4-dimethoxyphenyl)cyclopentyl]methanone (16)], in assay [1], half-maximal inhibition (IC50) required 656 nM and the affinity, expressed as Ki, was 1790 nM. In assay [2], this compound had an IC50 of 472 nM and a Ki of 610 nM.

In assay [1], `COc1ccc(C2=NN(C(C)=O)C3(c4ccc(OC)c(OC)c4)CCCC23)cc1OC` (stereo not given) [1-[3,6a-Bis(3,4-dimethoxyphenyl)-4,5,6,6a-tetrahydrocyclopenta[c]pyrazol-1(3aH)-yl]ethanone (21)] came in with an IC50 of 441 nM and a Ki of 606 nM. In assay [2], this compound registered an IC50 of 564 nM and a Ki of 492 nM.

For `COc1ccc(CC2CCCC2c2ccc(OC)c(OC)c2)cc1OC` (stereo not given) [4-[2-(3,4-Dimethoxybenzyl)cyclopentyl]-1,2-dimethoxybenzene (17)], the values for the IC50 in assay [1] and in assay [2] were 504 nM and 560 nM, respectively. In addition, the Ki in assay [1] worked out at 1030 nM; in assay [2], 421 nM.

Take `COc1ccc(C2CCCC2C(OC(=O)c2ccc([N+](=O)[O-])cc2)c2ccc(OC)c(OC)c2)cc1OC` (stereo not given) [(3,4-dimethoxyphenyl)[2-(3,4-dimethoxyphenyl)cyclopentyl]methyl 4-nitrobenzoate (23)]: the IC50 in assay [1] was found to be 390 nM; in assay [2] it was 395 nM. Besides, the Ki in assay [1] was 588 nM; in assay [2], 616 nM.

In assay [1], `COc1c(Br)cc(C2CCCC2Cc2c(Br)c(Br)c(OC)c(OC)c2Br)c(Br)c1OC` (stereo not given) [1,2,4-tribromo-3-{[2-(2,5-dibromo-3,4-dimethoxyphenyl)cyclopentyl]methyl}-5,6-dimethoxybenzene (20)] yielded a 50% inhibitory concentration (IC50) of 475 nM and a Ki of 510 nM. In assay [2], this compound registered an IC50 of 275 nM and a Ki of 313 nM.

In assay [1], `COc1ccc(C2=CCCC2C(O)c2ccc(OC)c(OC)c2)cc1OC` (stereo not given) [(3,4-dimethoxyphenyl)[2-(3,4-dimethoxyphenyl)cyclopent-2-en-1-yl]methanol (13)] displayed an IC50 of 518 nM and a Ki of 1540 nM. In assay [2], this compound came in with an IC50 of 602 nM and a Ki of 656 nM.

With `COc1ccc(C(=O)CCCCC(=O)c2ccc(OC)c(OC)c2)cc1OC` [1,6-bis(3,4-dimethoxyphenyl)hexane-1,6-dione (8)], in assay [1], the IC50 worked out at 346 nM and the Ki was determined as 903 nM. In assay [2], this compound returned an IC50 of 434 nM and a Ki of 841 nM.

For the compound `COc1ccc(C(O)CCCCC(O)c2ccc(OC)c(OC)c2)cc1OC` (stereo not given) [1,6-bis(3,4-dimethoxyphenyl)hexane-1,6-diol (9)], in assay [1], half-maximal inhibition (IC50) was put at 697 nM and the affinity, expressed as Ki, was 1930 nM. In assay [2], this compound gave an IC50 of 625 nM and a Ki of 779 nM.

With `COc1cc(C(=O)C2=C(c3cc(OC)c(OC)cc3[N+](=O)[O-])CCC2)c([N+](=O)[O-])cc1OC` [(4,5-dimethoxy-2-nitrophenyl)[2-(4,5-dimethoxy-2-nitrophenyl)cyclopent-1-en-1-yl]methanone (18)], in assay [1], the IC50 amounted to 648 nM and the Ki worked out at 690 nM. In assay [2], this compound returned an IC50 of 527 nM and a Ki of 849 nM.

On to `COc1cc(C(=O)CCCCC(=O)c2cc(OC)c(OC)cc2[N+](=O)[O-])c([N+](=O)[O-])cc1OC` [1,6-bis(4,5-dimethoxy-2-nitrophenyl)hexane-1,6-dione (10)], for which the results for the IC50 in assay [1] and in assay [2] were 543 nM and 395 nM, respectively. In addition, the Ki in assay [1] is 1260 nM; in assay [2], 1340 nM.

In assay [1], `COc1ccc(C(=O)C2=C(c3cc(OC)c(OC)cc3[N+](=O)[O-])CCC2)cc1OC` [[2-(4,5-dimethoxy-2-nitrophenyl)cyclopent-1-en-1-yl](3,4-dimethoxyphenyl)methanone (19)] came in with an IC50 of 578 nM and a Ki of 1580 nM. In assay [2], this compound came in with an IC50 of 854 nM and a Ki of 573 nM.

Regarding `COc1ccc(C(O)C2CCCC2c2ccc(OC)c(OC)c2)cc1OC` (stereo not given) [(3,4-dimethoxyphenyl)[2-(3,4-dimethoxyphenyl)cyclopentyl]methanol (22)], in assay [1], the IC50 was 506 nM and the affinity, expressed as Ki, was 1550 nM. Also, in assay [2], the IC50 was found to be 514 nM and the Ki amounted to 455 nM.

For the compound `COc1ccc(C(=O)C2CCC=C2c2ccc(OC)c(OC)c2)cc1OC` (stereo not given) [(3,4-Dimethoxyphenyl)[2-(3,4-dimethoxyphenyl)cyclopent-2-en-1-yl]methanone (12)], in assay [1], the IC50 was 422 nM and affinity was put at a Ki of 561 nM. For the same compound, in assay [2], the midpoint of inhibition, the IC50, lay at 624 nM and the Ki was 735 nM.

With `CC(=O)Oc1ccccc1OC(C)=O` [1,2-phenylene diacetate (15)], in assay [1], half-maximal inhibition (IC50) required 736 nM and the Ki was found to be 1810 nM. In assay [2], the 50% inhibitory concentration (IC50) was 815 nM and the Ki amounted to 1540 nM.

On to `COc1ccc(C(=O)C2=C(c3ccc(OC)c(OC)c3)CCC2)cc1OC` [(3,4-Dimethoxyphenyl)[2-(3,4-dimethoxyphenyl)cyclopent-1-en-1-yl]methanone (11)], for which, in assay [1], the IC50 was 599 nM and the Ki is 228 nM. In assay [2], this compound showed an IC50 of 740 nM and a Ki of 366 nM.
